# Counter-ions that a name gives are not always drawn.
# Legend:
# [1] = target: T1, human noradrenaline transporter (hNET) (Homo sapiens, UniProt P23975); experiment: SPA radioligand binding (3H-nisoxetine) at the human noradrenaline transporter; details: hNET membranes from HEK-293 cells, Cheng-Prusoff, geometric mean, read-out: NRI Ki
# T1 construct: expressed in transfected cells; host or cells: HEK-293
# Protocol: (§1) The compounds were tested for biological activity by their ability to inhibit binding of selective radioligands at the human serotonin and noradrenaline transporters (SERT and NET, respectively), using scintillation proximity assay (SPA) technology. The SPA binding was performed using cellular membrane preparations prepared from cell lines expressing human cDNA encoding either SERT or NET (hSERT, hNET), using the radioligands ^3H-citalopram and ^3H-nisoxetine.
# (§2) Human embryonic kidney cells (HEK-293) expressing each transporter were maintained as a continuous culture, using standard cell culture techniques, in 50 mL of growth medium (see Media and Buffers for composition) in 225 cm^2 flasks, at 37° C. in a humidified atmosphere with 5% CO2 present. Cells were passaged from a 90% confluent monolayer at a ratio of 1:3-1:4.
# (§3) For cell harvesting, the growth medium was removed from the monolayer and the cells were incubated with cell dissociation solution (Sigma) until showing signs of dissociation. The cells were subsequently knocked from the base of the flask and pelleted by centrifugation for storage (frozen at −80° C.) prior to further use.
# (§4) Cell pellets were thawed on ice and resuspended in 3 mL of membrane preparation buffer (see Media and Buffers for composition) per 1 mL of packed cell volume, using a vortex mixer to disperse the cell pellet.
# (§5) After incubation on ice for 10 minutes, the suspension was homogenised for four individual 10 second intervals using a hand-held homogeniser. The homogenate was then centrifuged at 1075×g for 20 minutes at 4° C.
# (§6) The supernatants were then collected and retained. Initial cell & nuclei pellets (P1) were subsequently rehomogenised and centrifuged using the conditions cited above, and the supernatants collected and pooled with those retained from the first spin.
# (§7) The pooled supernatants were centrifuged at 35000×g for 30 minutes at 4° C., and the supernatants discarded. The pellets (P2) were then resuspended in 1 mL of membrane preparation buffer per 1 mL of the original packed cell volume. Protein concentrations were then measured and the membrane suspension was finally frozen in aliquots of set volume and stored at −80° C. prior to use in assays.
# (§8) The specific SPA bead type differed for each transporter, wheat germ agglutinin-coated yttrium silicate (YSi WGA) SPA beads were used for hSERT and WGA-coated polyvinyltoluene (PVT WGA) SPA beads for hNET assays. For each batch of membrane used, optimal concentrations of bead and membrane were determined
# (§9) Tritiated radioligands specific to each transporter (^3H-citalopram for hSERT and ^3H-nisoxetine for hNET) were used. The assay free radioligand concentration was expressed as a percentage of the total free radioligand concentration to give an estimate of the radioligand depletion. The radioligand depletion in assays for both transporters was less than 30% to ensure that there was sufficient radioligand available for binding. The ligand depletion value was also used for selecting the optimal assay conditions when using new batches of membranes.
# (§10) The affinity of the specific radioligand for the respective transporter was determined for each membrane batch at the selected protein and bead concentrations. This was achieved by the determination of the KD, the concentration of free radioligand at which 50% of the transporter binding sites were occupied. The mean KD for a radioligand at a batch of membranes was determined from data from a minimum of three separate assays. The mean KD was subsequently used for all assays using the membrane batch profiled to enable determination of Ki values of compounds studied using the method determined by Cheng and Prussoff (Cheng Y C and Prusoff W H. Relationship between the inhibition constant (Ki) and the concentration of inhibitor which causes 50% inhibition of an enzymatic reaction. Biochem Pharmacol 1973; 22:2099-[…].) […]
# [2] = target: T2, human serotonin transporter (hSERT) (Homo sapiens, UniProt P31645); experiment: SPA radioligand binding (3H-citalopram) at the human serotonin transporter; details: hSERT membranes from HEK-293 cells, Cheng-Prusoff, geometric mean, read-out: SRI Ki
# T2 construct: expressed in transfected cells; host or cells: HEK-293
# Protocol: as §1, §2, §3, §4, §5, §6, §7, §8, §9, §10
# T1 sequence (P23975 whole entry): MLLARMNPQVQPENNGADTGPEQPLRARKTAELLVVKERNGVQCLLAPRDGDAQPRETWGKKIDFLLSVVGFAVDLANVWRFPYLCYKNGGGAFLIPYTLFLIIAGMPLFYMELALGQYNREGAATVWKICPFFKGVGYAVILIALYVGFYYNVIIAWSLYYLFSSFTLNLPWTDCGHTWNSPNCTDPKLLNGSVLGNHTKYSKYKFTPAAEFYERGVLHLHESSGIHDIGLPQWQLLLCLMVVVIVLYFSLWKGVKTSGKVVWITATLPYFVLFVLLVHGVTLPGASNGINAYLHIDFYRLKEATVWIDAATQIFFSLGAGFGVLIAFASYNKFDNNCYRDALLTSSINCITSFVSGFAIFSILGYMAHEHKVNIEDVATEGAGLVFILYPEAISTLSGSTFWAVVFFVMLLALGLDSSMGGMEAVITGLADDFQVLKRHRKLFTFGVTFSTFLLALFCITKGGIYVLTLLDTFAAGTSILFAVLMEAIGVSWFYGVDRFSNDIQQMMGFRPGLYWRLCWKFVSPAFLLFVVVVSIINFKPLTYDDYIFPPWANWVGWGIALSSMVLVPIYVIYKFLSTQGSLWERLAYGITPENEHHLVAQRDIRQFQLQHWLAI
# T2 sequence (P31645 whole entry): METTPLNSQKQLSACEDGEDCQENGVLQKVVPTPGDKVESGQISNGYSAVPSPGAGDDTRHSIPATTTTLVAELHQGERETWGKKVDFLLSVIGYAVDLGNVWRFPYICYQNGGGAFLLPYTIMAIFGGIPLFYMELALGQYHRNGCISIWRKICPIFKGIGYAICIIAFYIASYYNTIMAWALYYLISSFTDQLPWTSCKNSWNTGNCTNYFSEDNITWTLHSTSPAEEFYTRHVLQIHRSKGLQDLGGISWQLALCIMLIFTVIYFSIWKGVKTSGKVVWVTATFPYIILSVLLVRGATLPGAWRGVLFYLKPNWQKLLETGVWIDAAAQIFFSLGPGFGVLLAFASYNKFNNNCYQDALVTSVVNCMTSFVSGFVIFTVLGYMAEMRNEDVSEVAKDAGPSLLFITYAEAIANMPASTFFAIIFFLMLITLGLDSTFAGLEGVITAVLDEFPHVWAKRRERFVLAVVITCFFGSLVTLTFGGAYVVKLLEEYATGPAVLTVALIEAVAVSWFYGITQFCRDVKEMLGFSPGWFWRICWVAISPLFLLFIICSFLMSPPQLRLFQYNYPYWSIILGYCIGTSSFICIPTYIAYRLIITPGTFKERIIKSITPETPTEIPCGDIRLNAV
Structure (SMILES),Ki [1] [nM],Ki [2] [nM]
"O=C(c1cccc(Cl)c1Cl)N([C@H]1C[C@H]2CC[C@H]2C1)[C@H]1CCNC1 [Example 1, N-(1R,3r,5 S)-Bicyclo[3.2.0]hept-3-yl-2,3-dichloro-N-[(3S)-pyrrolidin-3-yl]benzamide]",12,9
"O=C(c1ccccc1C(F)(F)F)N(C1CC2CCC1C2)[C@H]1CCNC1 (stereo partly drawn) [Example 3, N-Bicyclo[2.2.1]hept-2-yl-2-(trifluoromethyl)N-[(3S)pyrrolidin-3-yl]benzamide]",28,30
"O=C(c1ccccc1Cl)N(C1CC2CCC1C2)[C@H]1CCNC1 (stereo partly drawn) [Example 4, N-Bicyclo[2.2.1]hept-2-yl-2-chloro-N-[(3S)-pyrrolidin-3-yl]benzamide]",25,6
"O=C(c1cccc(Cl)c1Cl)N(CCC(F)(F)F)[C@H]1CCNC1 [Example 5, 2,3-Dichloro-N-[(3S)-pyrrolidin-3-yl]-N-(3,3,3-trifluoropropyl)benzamide hydrochloride]",58,21
"CC(F)(F)CN(C(=O)c1ccccc1Oc1ccccc1)[C@H]1CCNC1 [Example 7, N-(2,2-Difluoropropyl)-2-phenoxy-N-[(3S)-pyrrolidin-3-yl]benzamide hydrochloride]",10,1590
"O=C(c1cccc(Cl)c1Cl)N(C(C1CC1)C1CC1)[C@H]1CCNC1 [Example 10, 2,3-dichloro-N-(dicyclopropylmethyl)-N-[(3S)-pyrrolidin-3-yl]benzamide hydrochloride]",72,11

# Reference: patent US20090239929A1, “N-Pyrrolidin-3-YL-Amide Derivatives As Serotonin and Noradrenalin Re-Uptake Inhibitors” (priority 2004, published 2009)
